Source: patent publication US20150299125A1, “PRODRUG BIPYRIDYLAMINOPYRIDINES AS SYK INHIBITORS” (MERCK SHARP & DOHME CORP., priority 2012, published 2015)
Converted amounts (≈) assume the structure as drawn.

Assays:
[1] = target: T1, recombinant human GST-Syk (Homo sapiens, UniProt P43405); experiment: Homogeneous Time-Resolved Fluorescence (HTRF) assay for the recombinant human Syk enzyme; type: biochemical; conditions: recombinant human GST-Syk 5 pM, ATP 25 μM, read-out: IC50
T1 construct: purchased Carna Biosciences 08-176
Outline: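 Recombinant GST-hSyk phosphorylates a biotinylated peptide for 45 min at room temperature. Quenched with EDTA buffer containing 2 nM Eu-anti-phosphotyrosine antibody and 70 nM SA-APC; HTRF read after 30 min.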

[2] = Solubility in biorelevant fasted state simulated intestinal fluid (FaSSIF); type: physicochemical; conditions: 25 °C, fassif, kinetic from dmso stock, Solubility
Outline: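 Compound from 10 mM DMSO stock diluted into FaSSIF (maximum solubility approximately 200 μM), equilibrated, then filtered by centrifugation through a 0.45 μm polypropylene membrane. Filtrate and a 100 μM standard analysed by HPLC/DAD; solubility = (sample peak area/standard peak area) × standard concentration.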

[3] = Conversion of prodrug to parent in intestine homogenate; type: in vitro ADME; conditions: prodrug 1 μM, intestine S9 1 mg protein/mL, 37° C., pH 7.4, 2 h
Description: Conversion of Prodrug to Parent in Intestine Homogenate:
(§1) The likely stability of prodrugs in the intestine can be estimated by incubating a prodrug with intestine homogenate. Incubations of prodrugs (1 μM) with intestine S9 (1 mg protein/mL) were carried out at 37° C. in a phosphate buffer, pH 7.4. Control incubations contained BSA (1.1 mg/mL) instead of intestine S9 microsomes. Aliquots were removed at 0, 5, 15, 30, 60 and 120 min, treated with 4 volumes of acetonitrile containing 2% formic acid and an internal standard, and centrifuged. The supernatants were analyzed by LC-MS/MS for prodrug disappearance and appearance of active drug. The half-life of the prodrug was calculated from the % prodrug remaining at different time points calculated from on the peak area ratio relative to t=0. The amount of active drug generated at the different time points was determined using a standard curve.

[4] = Conversion of prodrug to parent in liver homogenate; type: in vitro ADME; conditions: prodrug 1 μM, liver S9 1 mg protein/mL, 37° C., pH 7.4, 2 h
Description: Conversion of Prodrug to Parent in Liver Homogenate:
as §1, with “liver” for “intestine”

[5] = Blood stability assay; type: in vitro ADME; conditions: whole blood; human blood, 37° C.
Description: The likely stability of prodrugs in the blood can be estimated by incubating a prodrug with blood. A prodrug stock solution was prepared at 10 mM in DMSO and working solutions (100 μM) containing the prodrug were prepared by diluting a suitable amount of the stock solution with acetonitrile/water (50/50). 5 μL of the working solution were added to 495 μL of pre-warmed blood (at 37° C.). After vortexing and mixing, 50 μL of the spiked blood sample were taken for the 0 time point and transferred to another vial containing 200 μL of quenching solution (labetalol, alprazolam and diclofenac in 100% acetonitrile) ensuring that the vial is lidded to prevent evaporation and kept on ice. While keeping the spiked blood sample at 37° C. at the following timepoints (0.25, 0.5, 1, 2 and 3 h) 5 additional aliquots (50 μL) were sampled and mixed with the quenching solution. At the end of the experiment the quenched samples were vortexed for 2 minutes and centrifuged for 10 minutes at 4000 rpm. The supernatant (100 μL) was then transferred and collected into a new 96-well plate and injected into the LC-MS/MS for analysis. For each test compound, the area ratios at each time point to the 0 hour area ratio were compared and converted to a percentage remaining. The percentage remaining were then plotted against time (h) and half life generated using the following equation t½=0.693/kel. Where kel is the elimination rate constant which is determined from the concentration versus time curve by linear regression at the terminal phase of the semi-logarithmic plot.

[6] = Conversion of prodrug to parent in in vitro biorelevant gastrointestinal tract media; type: in vitro ADME; conditions: 37° C.; for Conversion in FaSSIF + Pancreatin, time: 3 h; for Conversion in FaSSIF, time / Conversion in SGF, time: 5 h; for Conversion in SGF, time: simulated gastric fluid
Description: Conversion of Prodrug to Parent in In Vitro Biorelevant Gastrointestinal Tract Media: The likely stability of prodrugs in the gastrointestinal tract can be estimated by incubating a prodrug in simulated gastric and intestinal fluids; compounds were measured for stability in simulated gastric fluid (SGF), fasted state simulated intestinal fluid (FaSSIF), and fasted state simulated intestinal fluid plus pancreatin (FaSSIF+pancreatin). Prodrug stock solutions were made by diluting 2 mg of compound in 200 μL DMSO. A 10 mg/mL Pancreatin in FaSSIF stock solution was made by dissolving 10 mg Pancreatin in 1 mL FaSSIF. Samples were prepared by diluting 10 μL of compound stock solution into 990 μL of biorelevant media (990 μL SGF, 990 μL FaSSIF, or 940 μL FaSSIF plus 50 μL Pancreatin stock) in a 2 mL HPLC vial and vortexing the mixture for a few seconds. The samples were incubated at 37° C. and aliquots were removed for up to 24 hours and injected directly on an HPLC to determine the conversion of prodrug to active drug. In the case of compound precipitation upon sample preparation, an individual sample was prepared for each desired time point and the entire sample was diluted with a known volume of acetonitrile/water (50/50) to ensure compound dissolution before HPLC analysis.

SMILES | IC50 [1] | solubility [2] | Prodrug concentration at 2 h [3] | Prodrug concentration at 2 h [4] | half-life at 1 μM [5] | Conversion in FaSSIF + Pancreatin, time [6] | Conversion in FaSSIF, time [6] | Conversion in SGF, time [6]
Cc1cc(Nc2cc(C(F)F)ccn2)nc(-c2ccc([C@](C)(O)[C@H]3CC[C@H](C(=O)OCOC(=O)OCCOCCOCCOCCOP(=O)(O)O)CC3)nc2)c1 [Example 8-1, 17,17-Dihydroxy-17-oxido-3-oxo-2,4,7,10,13,16-hexaoxa-17λ^5-phosphaheptadec-1-yl trans-4-[(1R)-1-(6-{[4-(difluoromethyl)pyridin-2-yl]amino}-4-methyl-2,3′-bipyridin-6′-yl)-1-hydroxyethyl]cyclohexanecarboxylate] | < 0.5 nM | 154 µM (≈ 125 µg/mL) | 0 µM | 0 µM |  |  |  | 
COCCN(C)C(=O)OC(C)OC(=O)[C@H]1CC[C@H]([C@@](C)(O)c2ccc(-c3cc(C)cc(Nc4cc(C(F)F)ccn4)n3)cn2)CC1 (mixture of isomers) [Example 4-1, 1-{[(2-methoxyethyl)(methyl)carbamoyl]oxy}ethyl trans-4-[(1R)-1-(6-{[4-(difluoromethyl)pyridin-2-yl]amino}-4-methyl-2,3′-bipyridin-6′-yl)-1-hydroxyethyl]cyclohexanecarboxylate] | 20.7 nM |  | 0.539 µM | 0 µM |  |  |  | 
COCCN(C)C(=O)OCOC(=O)[C@H]1CC[C@H]([C@@](C)(O)c2ccc(-c3cc(C)cc(Nc4cc(C(F)F)ccn4)n3)cn2)CC1 [Example 4-2, {[(2-methoxyethyl)(methyl)carbamoyl]oxy}methyl trans-4-[(1R)-1-(6-{[4-(difluoromethyl)pyridin-2-yl]amino}-4-methyl-2,3′-bipyridin-6′-yl)-1-hydroxyethyl]cyclohexanecarboxylate] | 9.1 nM |  |  |  | 16 min |  |  | 
Cc1cc(Nc2cc(C(F)F)ccn2)nc(-c2ccc([C@](C)(O)[C@H]3CC[C@H](C(=O)OCCOP(=O)(O)O)CC3)nc2)c1 [Example 8-2, 2-(phosphonooxy)ethyl trans-4-[(1R)-1-(6-{[4-(difluoromethyl)pyridin-2-yl]amino}-4-methyl-2,3′-bipyridin-6′-yl)-1-hydroxyethyl]cyclohexane-carboxylate] | < 0.5 nM | 161 µM (≈ 97.7 µg/mL) | 0.249 µM | 0.434 µM |  | 20%, 3 h | 0%, 5 h | 0%, 5 h
CNCCCOC(=O)[C@H]1CC[C@H]([C@@](C)(O)c2ccc(-c3cc(C)cc(Nc4cc(C(F)F)ccn4)n3)cn2)CC1 [Example 1-22, 3-(methylamino)propyl trans-4-[(1R)-1-(6-{[4-(difluoromethyl)pyridin-2-yl]amino}-4-methyl-2,3′-bipyridin-6′-yl)-1-hydroxyethyl] cyclohexanecarboxylate] | 1.8 nM | 183 µM (≈ 101 µg/mL) |  |  |  | 100%, 3 h | 0%, 5 h | 0%, 5 h
CCOCCOCCOC(=O)OC(OC(=O)[C@H]1CC[C@H]([C@@](C)(O)c2ccc(-c3cc(C)cc(Nc4cc(C(F)F)ccn4)n3)cn2)CC1)C(C)C (stereo partly drawn) [Example 2-17, 1-(1-methylethyl)-3-oxo-2,4,7,10-tetraoxadodec-1-yl trans-4-[(1R)-1-(6-{[4-(difluoromethyl)pyridin-2-yl]amino}-4-methyl-2,3′-bipyridin-6′-yl)-1-hydroxyethyl]cyclo hexanecarboxylate] | < 0.5 nM |  | 0.371 µM | 0 µM |  |  |  | 
Cc1cc(Nc2cc(C(F)F)ccn2)nc(-c2ccc([C@](C)(O)[C@H]3CC[C@H](C(=O)OCOC(=O)OCCCS(C)(=O)=O)CC3)nc2)c1 [Example 7-2, ({[3-(Methylsulfonyl)propoxy]carbonyl}oxy)methyl trans-4-[(1R)-1-(6-{[4-(difluoromethyl)pyridin-2-yl]amino}-4-methyl-2,3′-bipyridin-6′-yl)-1-hydroxyethyl]cyclohexanecarboxylate] | 7.5 nM |  | 0.092 µM | 0.12 µM |  |  |  | 
Cc1cc(Nc2cc(C(F)F)ccn2)nc(-c2ccc([C@](C)(O)[C@H]3CC[C@H](C(=O)OCC4CCNCC4)CC3)nc2)c1 [Example 1-21, piperidin-4-ylmethyl trans-4-[(1R)-1-(6-{[4-(difluoromethyl)pyridin-2-yl]amino}-4-methyl-2,3′-bipyridin-6′-yl)-1-hydroxyethyl] cyclohexanecarboxylate] | 2.3 nM | 167 µM (≈ 96.8 µg/mL) |  |  |  | 100%, 3 h | 0%, 5 h | 0%, 5 h
Cc1cc(Nc2cc(C(F)F)ccn2)nc(-c2ccc([C@](C)(O)[C@H]3CC[C@H](C(=O)OCC[S@@+](C)[O-])CC3)nc2)c1 (single isomer, unassigned) [Example 7-1a] | 4.2 nM | 56 µM (≈ 32.1 µg/mL) | 0.385 µM | 0 µM |  |  |  | 
Cc1cc(Nc2cc(C(F)F)ccn2)nc(-c2ccc([C@](C)(O)[C@H]3CC[C@H](C(=O)OCOC(=O)OCCCCCCN(C)C)CC3)nc2)c1 [Example 2-7, [({[6-(dimethylamino)hexyl]oxy}carbonyl)oxy]methyl trans-4-[(1R)-1-(6-{[4-(difluoromethyl)pyridin-2-yl]amino}-4-methyl-2,3′-bipyridin-6′-yl)-1-hydroxyethyl]cyclo hexanecarboxylate] | 78 nM | 119 µM (≈ 81.4 µg/mL) |  |  |  | 20%, 3 h | 0%, 5 h | 0%, 5 h
